# Measurements published in paper PMC8691691 (ACS Chemical Neuroscience, 2021).
# Where a chain is given by its changes, count along the chain named. Like-named read-outs stand apart in the source and are kept apart here.
# What was measured:
# [1] = system: GlyT1; details: neuronal cultures and brain preparations; cited from earlier work
# [2] = target: T1, GlyT1 (Rattus norvegicus, UniProt P28572); experiment: [3H]glycine transport by recombinant GlyT1 expressed in COS7 cells; assay type: cell-based; details: 10 μM glycine
# T1 construct: expressed in transfected cells; host or cells: COS7
# T1 sequence (P28572 1-638): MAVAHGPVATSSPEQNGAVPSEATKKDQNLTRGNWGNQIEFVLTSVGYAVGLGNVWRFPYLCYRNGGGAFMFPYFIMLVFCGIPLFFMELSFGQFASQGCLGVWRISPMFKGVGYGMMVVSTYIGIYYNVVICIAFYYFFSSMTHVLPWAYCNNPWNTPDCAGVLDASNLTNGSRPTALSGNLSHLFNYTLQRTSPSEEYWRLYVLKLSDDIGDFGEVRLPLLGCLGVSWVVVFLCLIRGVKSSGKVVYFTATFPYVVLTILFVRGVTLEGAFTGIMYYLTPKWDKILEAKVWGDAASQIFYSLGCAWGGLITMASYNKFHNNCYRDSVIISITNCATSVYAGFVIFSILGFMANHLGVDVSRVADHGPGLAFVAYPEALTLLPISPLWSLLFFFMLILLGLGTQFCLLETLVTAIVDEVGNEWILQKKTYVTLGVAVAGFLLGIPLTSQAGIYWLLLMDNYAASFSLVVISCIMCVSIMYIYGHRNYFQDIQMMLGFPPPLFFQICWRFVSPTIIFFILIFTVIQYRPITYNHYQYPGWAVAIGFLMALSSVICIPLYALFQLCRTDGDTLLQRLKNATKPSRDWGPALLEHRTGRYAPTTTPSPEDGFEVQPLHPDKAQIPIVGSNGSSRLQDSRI
# Procedure: Substitution mutants were generated with the QuikChange II Site-Directed Mutagenesis kit (Agilent Technologies, Santa Clara, CA, USA), using rGlyT2 or rGlyT1 subcloned in pCDNA3.[47] The complete coding region of all of the constructs was sequenced to verify that only the desired mutation had been introduced. […] COS7 cells were grown and transfected using Turbofect Transfection Reagent (Thermo Fisher Scientific, Waltham, MA, USA), following the manufacturer’s protocol (2 μL reagent/μg of DNA). Cells were incubated for 48 h at 37 °C until used.
# At the end of the desired time (usually 10 min), reactions were washed and terminated by aspiration. […] A nonlinear curve fitting method was used to obtain IC50 values using Graphpad Prism software, version 6.0, Graphpad, San Diego, CA, USA.
# [3] = system: thermal, mechanical, and chemical stimulations; details: rat acute pain model; cited from earlier work
# [4] = target: T2, GlyT2 W217F mutant (Rattus norvegicus, UniProt P58295, W217F); experiment: [3H]glycine transport by GlyT2 mutant in COS7 cells; assay type: cell-based
# T2 construct: expressed in transfected cells; host or cells: COS7
# T2 sequence (P58295 1-799 W217F): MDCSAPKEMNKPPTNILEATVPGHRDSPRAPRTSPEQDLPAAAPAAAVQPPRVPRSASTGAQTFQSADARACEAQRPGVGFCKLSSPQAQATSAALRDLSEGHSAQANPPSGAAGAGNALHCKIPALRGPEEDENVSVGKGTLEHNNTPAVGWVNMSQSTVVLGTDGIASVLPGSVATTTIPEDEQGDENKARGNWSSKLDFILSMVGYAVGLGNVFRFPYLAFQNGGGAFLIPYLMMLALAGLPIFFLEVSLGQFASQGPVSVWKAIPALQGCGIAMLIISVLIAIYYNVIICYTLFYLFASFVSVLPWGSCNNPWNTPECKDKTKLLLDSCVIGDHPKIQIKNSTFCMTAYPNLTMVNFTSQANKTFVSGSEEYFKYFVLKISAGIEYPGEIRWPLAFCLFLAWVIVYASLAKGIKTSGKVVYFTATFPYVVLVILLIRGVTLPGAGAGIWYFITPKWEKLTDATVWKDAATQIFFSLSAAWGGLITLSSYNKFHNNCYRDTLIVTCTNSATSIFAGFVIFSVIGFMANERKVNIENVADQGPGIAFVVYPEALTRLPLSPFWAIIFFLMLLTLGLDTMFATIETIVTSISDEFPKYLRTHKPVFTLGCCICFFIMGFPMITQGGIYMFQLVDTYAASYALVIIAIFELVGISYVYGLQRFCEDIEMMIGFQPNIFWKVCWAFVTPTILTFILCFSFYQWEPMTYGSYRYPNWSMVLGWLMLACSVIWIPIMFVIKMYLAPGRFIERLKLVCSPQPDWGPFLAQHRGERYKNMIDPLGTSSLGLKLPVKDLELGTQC
# [5] = target: T3, GlyT2 D635E mutant (Rattus norvegicus, UniProt P58295, D635E); experiment: as above; assay type: cell-based; details: read-out: IC50 (Table S1)
# T3 construct: expressed in transfected cells; host or cells: COS7
# T3 sequence (P58295 1-799 D635E): T2 sequence (P58295 1-799 W217F) with F217W, D635E
# [6] = due to its physiological irreversibility; cited from earlier work
# [7] = system: GlyT2; details: cited from earlier work
Structure (SMILES),concentrations at which GlyT1 is inhibited [1],"IC50, inhibition of glycine transport by GlyT1 [2]","effect on thermal, mechanical, and chemical stimulations [3]",IC50 ([4]; read-out: IC50 (Table S1)),IC50 [5],toxicity in animals [6],reversibility of GlyT2 inhibition [7],IC50 [4],"effect of mutation on inhibition of glycine transport ([4]; W217F, 1 μM inhibitor, 20 μM glycine)"
N[C@@H](COC(c1cccc(F)c1)c1ccccc1OCc1ccccc1)C(=O)O (stereo partly drawn) [ALX1393],0.5 to 1 µM,low μM range,antinociceptive effect,23 ± 5 nM,30 ± 4 nM,,,,
"COc1cc(C(=O)NCC2(N(C)C)CCCC2)cc(OC)c1OCc1ccccc1 [ORG25543, N-[[1-(dimethylamino)cyclopentyl]methyl]-3,5-dimethoxy-4-(phenylmethoxy)benzamide]",,,,,,generates toxicity in animals,irreversible GlyT2 inhibitor,93 ± 7 nM,selectively reduced ORG25543 inhibition
